Assay results from paper PMC6556873, “Rapid Covalent-Probe Discovery by Electrophile-Fragment Screening” (Journal of the American Chemical Society, 2019).
Where two headings read alike, the source gives them in different places.

Columns and labels:
[1] = molecular target: T1, OTUB2 (OTUB2A) (Homo sapiens, UniProt Q96DC9); set-up: Intact protein LC/MS covalent labelling, fragments in pools of five, 200 uM each, 4 °C; conditions: 24 h, 4 °C, pool of five; 200 µM; covalent
T1 construct: full length residues 1-234, E. coli BL21(DE3)-R3, His tag removed by TEV, construct 27312 Da
T1 sequence (Q96DC9 1-234): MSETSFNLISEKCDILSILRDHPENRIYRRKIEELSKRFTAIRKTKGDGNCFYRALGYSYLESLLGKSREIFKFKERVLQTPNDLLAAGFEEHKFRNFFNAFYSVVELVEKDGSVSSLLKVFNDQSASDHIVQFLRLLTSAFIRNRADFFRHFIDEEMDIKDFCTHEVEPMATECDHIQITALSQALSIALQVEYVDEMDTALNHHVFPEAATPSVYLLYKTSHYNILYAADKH

[2] = molecular target: T2, NUDT7 (Homo sapiens, UniProt P0C024); set-up: Intact protein LC/MS covalent labelling, fragments in pools of five, 200 uM each, 4 °C; conditions: 24 h, 4 °C, pool of five; 200 µM; covalent
T2 construct: residues 14-235, E. coli, pNIC28-Bsa4, N-terminal His6 tag removed by TEV, construct 26672 Da
T2 sequence (P0C024 14-235): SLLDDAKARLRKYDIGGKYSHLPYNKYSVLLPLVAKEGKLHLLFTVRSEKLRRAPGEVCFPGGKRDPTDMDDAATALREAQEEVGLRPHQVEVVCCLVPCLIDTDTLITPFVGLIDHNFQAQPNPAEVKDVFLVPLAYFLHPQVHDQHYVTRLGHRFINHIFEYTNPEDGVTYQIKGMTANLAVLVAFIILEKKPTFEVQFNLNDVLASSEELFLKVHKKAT

[3] = molecular target: T3, NNMT (hNNMT) (Homo sapiens, UniProt P40261); set-up: Intact protein LC/MS covalent labelling, fragments in pools of five, 200 uM each, 4 °C; conditions: 24 h, 4 °C, pool of five; 200 µM; covalent
T3 construct: wild type, N-terminal His6 tag kept (no cleavage described), E. coli, construct 31248 Da
T3 sequence (P40261 1-264): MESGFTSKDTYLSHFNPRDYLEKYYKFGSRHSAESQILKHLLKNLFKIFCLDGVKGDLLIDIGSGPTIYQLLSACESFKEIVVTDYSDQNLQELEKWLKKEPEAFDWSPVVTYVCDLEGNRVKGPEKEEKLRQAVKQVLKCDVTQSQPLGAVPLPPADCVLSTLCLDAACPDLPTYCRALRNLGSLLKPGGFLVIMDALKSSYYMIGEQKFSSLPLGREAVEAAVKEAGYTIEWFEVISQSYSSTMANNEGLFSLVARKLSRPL

[4] = molecular target: T4, PCAF (Homo sapiens, UniProt Q92831); set-up: Intact protein LC/MS covalent labelling, fragments in pools of five, 200 uM each, 4 °C; conditions: 24 h, 4 °C, pool of five; 200 µM; covalent
T4 construct: gene KAT2B
T4 sequence (Q92831 whole entry, the tested form may be a part): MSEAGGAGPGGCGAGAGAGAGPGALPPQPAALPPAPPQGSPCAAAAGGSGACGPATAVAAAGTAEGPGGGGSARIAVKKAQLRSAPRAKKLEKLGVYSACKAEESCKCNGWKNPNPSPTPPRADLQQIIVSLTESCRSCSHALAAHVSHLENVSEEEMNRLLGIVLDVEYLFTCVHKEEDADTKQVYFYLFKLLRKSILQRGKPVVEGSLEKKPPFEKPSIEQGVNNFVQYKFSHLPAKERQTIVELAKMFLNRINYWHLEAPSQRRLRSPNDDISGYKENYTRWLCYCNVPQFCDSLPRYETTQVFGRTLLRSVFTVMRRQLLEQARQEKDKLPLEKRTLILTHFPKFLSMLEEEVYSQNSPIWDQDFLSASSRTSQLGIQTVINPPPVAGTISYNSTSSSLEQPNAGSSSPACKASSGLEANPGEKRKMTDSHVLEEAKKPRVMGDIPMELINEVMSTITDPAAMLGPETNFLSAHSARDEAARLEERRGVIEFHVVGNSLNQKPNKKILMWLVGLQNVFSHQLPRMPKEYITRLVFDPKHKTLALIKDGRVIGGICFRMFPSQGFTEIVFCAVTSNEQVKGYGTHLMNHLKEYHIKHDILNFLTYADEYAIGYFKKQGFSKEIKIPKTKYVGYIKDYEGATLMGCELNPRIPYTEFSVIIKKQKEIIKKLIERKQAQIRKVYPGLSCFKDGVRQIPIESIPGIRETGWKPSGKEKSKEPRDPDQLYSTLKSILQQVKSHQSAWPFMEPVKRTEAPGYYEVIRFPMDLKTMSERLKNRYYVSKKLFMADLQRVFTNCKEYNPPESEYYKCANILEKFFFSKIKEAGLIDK

[5] = molecular target: T5, BSA (Bos taurus, UniProt P02769); set-up: Intact protein LC/MS covalent labelling, fragments in pools of five, 200 uM each, 4 °C; conditions: 24 h, 4 °C, pool of five; 200 µM; covalent
T5 construct: gene ALB
T5 sequence (P02769 whole entry, the tested form may be a part): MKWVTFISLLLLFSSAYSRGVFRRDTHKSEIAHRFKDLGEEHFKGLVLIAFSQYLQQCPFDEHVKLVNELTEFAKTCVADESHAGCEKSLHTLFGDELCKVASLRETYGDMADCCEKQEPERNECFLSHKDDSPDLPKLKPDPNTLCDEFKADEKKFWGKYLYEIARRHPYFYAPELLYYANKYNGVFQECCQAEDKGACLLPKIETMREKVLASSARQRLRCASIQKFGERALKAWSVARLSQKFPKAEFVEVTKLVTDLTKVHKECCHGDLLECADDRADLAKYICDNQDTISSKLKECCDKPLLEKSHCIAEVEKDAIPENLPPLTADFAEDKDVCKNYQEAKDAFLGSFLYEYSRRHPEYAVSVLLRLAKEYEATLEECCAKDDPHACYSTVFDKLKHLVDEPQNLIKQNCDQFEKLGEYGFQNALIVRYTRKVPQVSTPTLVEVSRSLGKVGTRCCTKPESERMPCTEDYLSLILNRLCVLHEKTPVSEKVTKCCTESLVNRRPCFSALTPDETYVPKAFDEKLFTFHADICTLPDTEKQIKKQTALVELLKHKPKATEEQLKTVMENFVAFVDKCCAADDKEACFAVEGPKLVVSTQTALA

[6] = in vitro; set-up: species or system CCD841, HEK293; conditions: human, hb2 cells, read-out: HB-2 Cells Viability (%)
[7] = in vitro; set-up: species or system HB2, HEK293; conditions: human, ccd841 cells
[8] = in vitro; set-up: species or system HB2, CCD841; conditions: human, hek293 cells

SMILES: O=C(CCl)Nc1ccnn1C1CCCC1 [PCM-0102336]
- OTUB2 [1]: 0.19
- NUDT7 [2]: 0
- NNMT [3]: 0
- PCAF [4]: 0
- BSA [5]: 0
- viability at 48 h, 10 µM [6]: 41.3%
- viability at 48 h, 10 µM [7]: 60.4%
- viability at 48 h, 10 µM [8]: 7.7%

SMILES: Cc1oc(NC(=O)CCl)c(C#N)c1C [PCM-0102337]
- OTUB2 [1]: 0.45
- NUDT7 [2]: 0
- NNMT [3]: 0.53
- PCAF [4]: 0
- BSA [5]: 0
- viability at 48 h, 10 µM [6]: 56.5%
- viability at 48 h, 10 µM [7]: 56.4%
- viability at 48 h, 10 µM [8]: 82.9%

SMILES: Cc1ccc(NC(=O)CCl)cc1C [PCM-0102339]
- OTUB2 [1]: 0.82
- NUDT7 [2]: 0.18
- NNMT [3]: 0.7
- PCAF [4]: 0
- BSA [5]: 0
- viability at 48 h, 10 µM [6]: 5.2%
- viability at 48 h, 10 µM [7]: 34.9%
- viability at 48 h, 10 µM [8]: 1.5%

SMILES: Cc1cccc(CN2CCN(C(=O)CCl)CC2)c1 [PCM-0102340]
- OTUB2 [1]: 0.17
- NUDT7 [2]: 0
- NNMT [3]: 0.26
- PCAF [4]: 0
- BSA [5]: 0
- viability at 48 h, 10 µM [6]: 19.6%
- viability at 48 h, 10 µM [7]: 42.4%
- viability at 48 h, 10 µM [8]: 15.3%

SMILES: CC(C)(C)c1ccc(C(=O)NNC(=O)CCl)cc1 [PCM-0102355]
- OTUB2 [1]: 0.66
- NUDT7 [2]: 0
- NNMT [3]: 0
- PCAF [4]: 0
- BSA [5]: 0
- viability at 48 h, 10 µM [6]: 48.1%
- viability at 48 h, 10 µM [7]: 44.3%
- viability at 48 h, 10 µM [8]: 53.7%

SMILES: CN(C)C(=O)CNC(=O)CCl [PCM-0102365]
- OTUB2 [1]: 0
- NUDT7 [2]: 0
- NNMT [3]: 0
- PCAF [4]: 0
- BSA [5]: 0
- viability at 48 h, 10 µM [6]: 103%
- viability at 48 h, 10 µM [7]: 100%
- viability at 48 h, 10 µM [8]: 95.6%

SMILES: O=C(CCl)Nc1cc([N+](=O)[O-])ccc1Cl [PCM-0102366]
- OTUB2 [1]: 0.27
- NUDT7 [2]: 0.2
- NNMT [3]: 0.51
- PCAF [4]: 0
- BSA [5]: 0
- viability at 48 h, 10 µM [6]: 1.3%
- viability at 48 h, 10 µM [7]: 4.3%
- viability at 48 h, 10 µM [8]: 2.6%

SMILES: COc1ccc(Cl)cc1NC(=O)CCl [PCM-0102370]
- OTUB2 [1]: 0.18
- NUDT7 [2]: 0.23
- NNMT [3]: 0
- PCAF [4]: 0
- BSA [5]: 0
- viability at 48 h, 10 µM [6]: 3.7%
- viability at 48 h, 10 µM [7]: 34.6%
- viability at 48 h, 10 µM [8]: 3.3%

SMILES: O=C(CCl)N(c1ccccc1)C1C=CS(=O)(=O)C1 (centres unmarked) [PCM-0102372]
- OTUB2 [1]: 0
- NUDT7 [2]: 0.28
- NNMT [3]: 0.28
- PCAF [4]: 0
- BSA [5]: 0
- viability at 48 h, 10 µM [6]: 24.1%
- viability at 48 h, 10 µM [7]: 31%
- viability at 48 h, 10 µM [8]: 11.2%

SMILES: Cl.O=C(CCl)N1CCN(c2ccccc2F)CC1 [PCM-0102373]
- OTUB2 [1]: 0
- NUDT7 [2]: 0
- NNMT [3]: 0
- PCAF [4]: 0
- BSA [5]: 0
- viability at 48 h, 10 µM [6]: 55.8%
- viability at 48 h, 10 µM [7]: 79.7%
- viability at 48 h, 10 µM [8]: 64.3%

SMILES: CC(NC(=O)CCl)c1ccc(Br)cc1 (centres unmarked) [PCM-0102374]
- OTUB2 [1]: 0.34
- NUDT7 [2]: 0.23
- NNMT [3]: 0.55
- PCAF [4]: 0
- BSA [5]: 0
- viability at 48 h, 10 µM [6]: 63.8%
- viability at 48 h, 10 µM [7]: 73.1%
- viability at 48 h, 10 µM [8]: 50%

SMILES: O=C(CCl)Nc1ccccc1N1CCCC1=O [PCM-0102375]
- OTUB2 [1]: 0.13
- NUDT7 [2]: 0
- NNMT [3]: 0
- PCAF [4]: 0
- BSA [5]: 0
- viability at 48 h, 10 µM [6]: 79.6%
- viability at 48 h, 10 µM [7]: 78%
- viability at 48 h, 10 µM [8]: 51.9%

SMILES: Cc1ccc(-c2cc(NC(=O)CCl)on2)cc1 [PCM-0102382]
- OTUB2 [1]: 0.45
- NUDT7 [2]: 0.81
- NNMT [3]: 0.64
- PCAF [4]: 0
- BSA [5]: 0
- viability at 48 h, 10 µM [6]: 42.7%
- viability at 48 h, 10 µM [7]: 54.6%
- viability at 48 h, 10 µM [8]: 52.2%

SMILES: O=C(CCl)N1CCN(Cc2ccc3c(c2)OCCO3)CC1 [PCM-0102386]
- OTUB2 [1]: 0
- NUDT7 [2]: 0
- NNMT [3]: 0
- PCAF [4]: 0
- BSA [5]: 0
- viability at 48 h, 10 µM [6]: 42.2%
- viability at 48 h, 10 µM [7]: 75.9%
- viability at 48 h, 10 µM [8]: 39.1%

SMILES: O=C(Nc1ccccc1O)C1CCN(C(=O)CCl)CC1 [PCM-0102389]
- OTUB2 [1]: 0.14
- NUDT7 [2]: 0.1
- NNMT [3]: 0
- PCAF [4]: 0
- BSA [5]: 0
- viability at 48 h, 10 µM [6]: 35.7%
- viability at 48 h, 10 µM [7]: 63%
- viability at 48 h, 10 µM [8]: 16%

SMILES: Cc1ccccc1C(C)NC(=O)CCl (centres unmarked) [PCM-0102390]
- OTUB2 [1]: 0.26
- NUDT7 [2]: 0.1
- NNMT [3]: 0.26
- PCAF [4]: 0
- BSA [5]: 0
- viability at 48 h, 10 µM [6]: 92.8%
- viability at 48 h, 10 µM [7]: 71.4%
- viability at 48 h, 10 µM [8]: 75.8%

SMILES: Cl.O=C(CCl)N1CCN(Cc2ccc3c(c2)OCO3)CC1 [PCM-0102397]
- OTUB2 [1]: 0
- NUDT7 [2]: 0
- NNMT [3]: 0
- PCAF [4]: 0
- BSA [5]: 0
- viability at 48 h, 10 µM [6]: 20.7%
- viability at 48 h, 10 µM [7]: 67.3%
- viability at 48 h, 10 µM [8]: 31.7%

SMILES: O=C(CCl)Nc1ccc(C(=O)O)cc1 [PCM-0102400]
- OTUB2 [1]: 0
- NUDT7 [2]: 0
- NNMT [3]: 0
- PCAF [4]: 0
- BSA [5]: 0
- viability at 48 h, 10 µM [6]: 84.1%
- viability at 48 h, 10 µM [7]: 72.5%
- viability at 48 h, 10 µM [8]: 112%

SMILES: CN(Cc1ccc(Br)cc1)C(=O)CCl [PCM-0102401]
- OTUB2 [1]: 0
- NUDT7 [2]: 0.58
- NNMT [3]: 0.53
- PCAF [4]: 0
- BSA [5]: 0
- viability at 48 h, 10 µM [6]: 6.8%
- viability at 48 h, 10 µM [7]: 32.1%
- viability at 48 h, 10 µM [8]: 7.3%

SMILES: O=C(CCl)NC1C2CC3CC(C2)CC1C3 (centres unmarked) [PCM-0102404]
- OTUB2 [1]: 0.33
- NUDT7 [2]: 0
- NNMT [3]: 0
- PCAF [4]: 0
- BSA [5]: 0
- viability at 48 h, 10 µM [6]: 63.3%
- viability at 48 h, 10 µM [7]: 68.9%
- viability at 48 h, 10 µM [8]: 90.6%

SMILES: CS(=O)(=O)c1cccc(NC(=O)CCl)c1 [PCM-0102407]
- OTUB2 [1]: 0.33
- NUDT7 [2]: 0
- NNMT [3]: 0
- PCAF [4]: 0
- BSA [5]: 0
- viability at 48 h, 10 µM [6]: 26.4%
- viability at 48 h, 10 µM [7]: 47%
- viability at 48 h, 10 µM [8]: 1.4%

SMILES: O=C(CCl)NC(=O)c1ccccc1 [PCM-0102414]
- OTUB2 [1]: 0
- NUDT7 [2]: 0
- NNMT [3]: 0
- PCAF [4]: 0
- BSA [5]: 0
- viability at 48 h, 10 µM [6]: 102%
- viability at 48 h, 10 µM [7]: 101%
- viability at 48 h, 10 µM [8]: 91.5%

SMILES: O=C(CCl)Nc1ccccc1N1CCOCC1 [PCM-0102416]
- OTUB2 [1]: 0
- NUDT7 [2]: 0
- NNMT [3]: 0
- PCAF [4]: 0
- BSA [5]: 0
- viability at 48 h, 10 µM [6]: 99.5%
- viability at 48 h, 10 µM [7]: 90.7%
- viability at 48 h, 10 µM [8]: 113%

SMILES: COC(=O)c1c(NC(=O)CCl)sc2c1CCC(C)C2 (centres unmarked) [PCM-0102418]
- OTUB2 [1]: 0
- NUDT7 [2]: 0.12
- NNMT [3]: 0.8
- PCAF [4]: 0
- BSA [5]: 0
- viability at 48 h, 10 µM [6]: 40.8%
- viability at 48 h, 10 µM [7]: 88.6%
- viability at 48 h, 10 µM [8]: 56.4%

SMILES: C=CC(=O)N1CCCc2cc(C(=O)O)ccc21 [PCM-0102421]
- OTUB2 [1]: 0
- NUDT7 [2]: 0
- NNMT [3]: 0.19
- PCAF [4]: 0
- BSA [5]: 0
- viability at 48 h, 10 µM [6]: 96.3%
- viability at 48 h, 10 µM [7]: 109%
- viability at 48 h, 10 µM [8]: 87.2%
